# Experimental data reported in the supplement of paper PMC11451515.
# Tested on: SEM cells
# Assay: cell viability relative to DMSO control; higher = less cytotoxic
# Details: 48 h
# Procedure, shortened: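 Cells were incubated for 48 h at 37°C before CellTiter-Glo One luminescence was read. The cells were NOMO1 or SEM (500 cells/well) or P12-Ichikawa (1000 cells/well) leukemia cells, adapted for at least four passages in each medium and seeded in 1536-well plates (5 μl). Dosing used library compounds in DMSO applied by pin over 11 threefold points, 47 μM to 0.79 nM. Viability is the per-plate percentage of DMSO wells, with cell-free wells as background.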
# [1] = HPLM + 10% dialyzed FBS, 0.000781 µM
# [2] = HPLM + 10% dialyzed FBS, 0.00234 µM
# [3] = HPLM + 10% dialyzed FBS, 0.00702 µM
# [4] = HPLM + 10% dialyzed FBS, 0.0211 µM
# [5] = HPLM + 10% dialyzed FBS, 0.0632 µM
# [6] = HPLM + 10% dialyzed FBS, 0.19 µM
# [7] = HPLM + 10% dialyzed FBS, 0.569 µM
# [8] = HPLM + 10% dialyzed FBS, 1.71 µM
# [9] = HPLM + 10% dialyzed FBS, 5.12 µM
# [10] = HPLM + 10% dialyzed FBS, 15.4 µM
# [11] = HPLM + 10% dialyzed FBS, 46.1 µM
# [12] = RPMI 5 mM glucose + 10% FBS, 0.000781 µM
# [13] = RPMI 5 mM glucose + 10% FBS, 0.00234 µM
# [14] = RPMI 5 mM glucose + 10% FBS, 0.00702 µM
# [15] = RPMI 5 mM glucose + 10% FBS, 0.0211 µM
# [16] = RPMI 5 mM glucose + 10% FBS, 0.0632 µM
# [17] = RPMI 5 mM glucose + 10% FBS, 0.19 µM
# [18] = RPMI 5 mM glucose + 10% FBS, 0.569 µM
# [19] = RPMI 5 mM glucose + 10% FBS, 1.71 µM
# [20] = RPMI 5 mM glucose + 10% FBS, 5.12 µM
# [21] = RPMI 5 mM glucose + 10% FBS, 15.4 µM
# [22] = RPMI 5 mM glucose + 10% FBS, 46.1 µM
# [23] = RPMI 5 mM glucose + 10% dialyzed FBS, 0.000781 µM
# [24] = RPMI 5 mM glucose + 10% dialyzed FBS, 0.00234 µM
# [25] = RPMI 5 mM glucose + 10% dialyzed FBS, 0.00702 µM
# [26] = RPMI 5 mM glucose + 10% dialyzed FBS, 0.0211 µM
# [27] = RPMI 5 mM glucose + 10% dialyzed FBS, 0.0632 µM
# [28] = RPMI 5 mM glucose + 10% dialyzed FBS, 0.19 µM
# [29] = RPMI 5 mM glucose + 10% dialyzed FBS, 0.569 µM
# [30] = RPMI 5 mM glucose + 10% dialyzed FBS, 1.71 µM
# [31] = RPMI 5 mM glucose + 10% dialyzed FBS, 5.12 µM
# [32] = RPMI 5 mM glucose + 10% dialyzed FBS, 15.4 µM
# [33] = RPMI 5 mM glucose + 10% dialyzed FBS, 46.1 µM
Compound,cell viability [1] [%],cell viability [2] [%],cell viability [3] [%],cell viability [4] [%],cell viability [5] [%],cell viability [6] [%],cell viability [7] [%],cell viability [8] [%],cell viability [9] [%],cell viability [10] [%],cell viability [11] [%],cell viability [12] [%],cell viability [13] [%],cell viability [14] [%],cell viability [15] [%],cell viability [16] [%],cell viability [17] [%],cell viability [18] [%],cell viability [19] [%],cell viability [20] [%],cell viability [21] [%],cell viability [22] [%],cell viability [23] [%],cell viability [24] [%],cell viability [25] [%],cell viability [26] [%],cell viability [27] [%],cell viability [28] [%],cell viability [29] [%],cell viability [30] [%],cell viability [31] [%],cell viability [32] [%],cell viability [33] [%]
CC(C)C[C@H](CN)CC(=O)O,110,116,105,111,97.6,98.8,115,102,119,37.9,93.9,102,102,98.7,105,93.9,88.7,104,113,103,41.2,92.1,101,105,107,103,110,102,113,109,97.1,38.8,110
C[C@@H]1CC[C@@]2(OC1)O[C@H]3C[C@H]4[C@@H]5C/C=C6/C[C@H](CC[C@]6(C)[C@H]5CC[C@]4(C)[C@H]3[C@@H]2C)O[C@@H]7O[C@H](CO)[C@@H](O[C@@H]8O[C@@H](C)[C@H](O)[C@@H](O)[C@H]8O)[C@H](O)[C@H]7O[C@@H]9O[C@@H](C)[C@H](O)[C@@H](O)[C@H]9O,92.6,79.3,97.5,110,114,117,118,115,111,73.9,8.36,–,–,–,–,–,–,–,–,–,–,–,110,116,114,116,139,104,122,119,119,55,7.66
CC1SC/2=C(C(O)=O)/C(=O)C3=CC(=C(C=C3N12)N4CCN(CC4)C\C5=C(C)\OC(=O)O5)F (configuration not stated),–,–,–,–,–,–,–,–,–,–,–,61.5,119,128,121,124,123,132,111,121,114,112,47.8,125,143,130,133,102,140,126,115,116,104
COc1cc2ncnc(-n3nc(-c4ccccn4)nc3N)c2cc1OC,75.1,95.7,96.7,94.2,94.9,103,79.3,83.7,35,45,1.68,105,103,114,100,85.8,106,91.2,39.1,3.56,1.61,1.33,83.2,93.8,95.1,85.7,81.9,99.8,83.6,65.7,9.89,11.4,1.21
CCCCN(CCCC)CCC(O)c1cc2c(Cl)cc(Cl)cc2c2cc(C(F)(F)F)ccc12 (configuration not stated),92.5,93.3,84.3,104,108,122,36.2,61.7,117,91.3,109,109,105,107,115,116,141,48.4,52,111,89.7,89,92.1,116,109,110,105,118,46.2,48.3,104,83.1,105
O=C1NC(=O)[C@@H](c2cn3c4c(cccc24)CCC3)[C@@H]1c1c[nH]c2ccccc12,91.6,98.3,111,99.9,93.8,75.2,96.5,39.9,25.5,22.3,28.9,117,114,113,115,124,76.2,88,27.4,20.6,16.2,22.5,90.6,98.5,103,84.1,114,83.2,102,39.1,22.7,16.4,34.4
Cc1ccc(C(C)(O)c2nc3ccccc3s2)c(C)c1 (configuration not stated),75.7,95.1,106,82.9,108,114,6.4,76.6,94.2,62.4,63.5,91.7,110,94.2,102,107,123,7.03,70.7,102,61.2,63.2,77.1,112,93.7,114,91.1,115,8,69.7,97.4,56.5,56.6
Cc1c[nH]c(/C=C2\C(=O)Nc3ccccc32)c1CCC(=O)O,102,107,112,103,89.8,90.1,69.7,51.6,42.6,26.7,39,61.2,83.1,83.6,64.7,72.7,49.3,50.6,34.1,27.6,28.1,26.6,107,105,99.6,94.7,90.8,75.8,67.6,47.1,33.6,25.7,46.5
C[C@H]1CN(C[C@@H](C)O1)CC(=O)NC2=CC=C3SC4=C(CC3=C2)C=CC=C4\C5=C\C(=O)\C=C(/O5)N6CCOCC6,80.4,108,43,118,110,126,113,113,89.8,84.4,39.8,76.2,91.8,14.3,78.1,86.6,80.5,83.2,81.9,75.8,44.1,15,86.7,95.3,34.6,101,118,111,103,99.4,73.7,46.9,19.6
NC(=O)c1ccc(-c2nc(-c3ccc4c(c3)OCCO4)c(-c3ccccn3)[nH]2)cc1,116,124,109,119,120,136,135,132,143,130,126,100,112,96.3,114,105,111,102,110,119,112,108,119,126,111,137,121,118,124,131,122,138,146
O=C(NC1CCOCC1)c1ccc(-c2cc(-c3c[nH]nc3-c3ccccn3)ccn2)cc1,106,108,108,115,117,120,114,112,105,120,114,124,116,124,121,118,132,104,120,118,122,122,98.7,108,110,111,104,105,106,104,113,110,123
CNC(=O)c1cccc(-c2ccc3c(N4CCOC[C@@H]4C)nc(N4CCOC[C@@H]4C)nc3n2)c1,97.5,102,85.8,77.2,73.2,63.7,62.6,47.8,37.6,38.6,23.1,110,98.1,97,93.3,84.4,77.6,78.7,56.1,47.3,32.9,17.9,97.7,95.9,85.3,76,69.6,64.1,58.6,55.3,43,35,20.7
Clc1cccc(-c2nnnn2Cc2cccnc2)c1Cl,79.7,81.9,67,92.9,101,103,92.6,57.7,49.4,50.2,45,101,92,70.1,102,95.3,95,74.6,46.4,40.4,42,35.9,87.5,85.7,75,93.4,91.7,99.4,102,62,56,58.4,46.6
CC(C)(C)/[N+]([O-])=C/c1ccc([S+](=O)([O-])[O][Na])cc1[S+](=O)([O-])[O][Na],88.7,76.3,84.5,99.9,84.6,98.6,101,90.3,88.1,99.2,94.9,115,83.1,86.9,109,105,124,110,108,116,91.2,108,95.7,105,102,94.1,98.8,120,117,104,113,105,110
Cc1cc2c(C(C)C)c(O)c(O)c(C=O)c2c(O)c1-c1c(C)cc2c(C(C)C)c(O)c(O)c(C=O)c2c1O,107,114,105,113,112,101,116,101,99.2,110,27.6,–,–,–,–,–,–,–,–,–,–,–,106,123,120,109,112,113,117,103,106,90,6.54
